# Test results taken from patent US20160038532A1, “Treatment of Multiple Sclerosis With Combination of Laquinimod and Glatiramer Acetate” (TEVA PHARMACEUTICAL INDUSTRIES, LTD., priority 2011, published 2016).
# Several values for one entry are separate records, joined by “and”; a condition that tells them apart may be missing. Equal entries are not always repeated. Marks after values point to notes of the source that are not given here.
# Experiments:
# MOG-induced EAE = assay: MOG-induced EAE, lower doses of laquinimod with GA-blocking (Example 2.2); type: in vivo, C57B1/6 mice; settings: alone or + GA-blocking 12.5 mg/kg day 0
# Description: MOG is a member of the immunoglobulin superfamily expressed exclusively in CNS myelin. It is one of the most encephalitogenic proteins and is widely used to induce EAE in different rodent strains. In C57BL/6 mice, immunization with the MOG peptide pMOG35-55 in CFA induces chronic progressive EAE.
# 24 mg MOG was diluted in 8 ml PBS (3 mg/ml, stock solution). Groups 1, 3 and 5: 3.5 ml of stock solution was diluted 1:1 with PBS. […] 4.5 ml of MOG stock solution was added to this solution.
# The high dose LAQ (5 mg/10 ml/kg) solution (40 mg in 80 ml DDW) was prepared once weekly and stored at room temperature. For the dose of 2.5 mg/kg LAQ, 25 ml of this solution were added to 25 ml DDW. For the dose 1 mg/kg 5 ml of stock solution (high dose) were added to 20 ml DDW. The compound was administered by gavage once daily during the whole experiment (30 days) at a volume of 0.2 ml/mouse.
# The mice were observed daily from the 9th day post-EAE induction (first injection of MOG) and the EAE clinical signs were scored according to the grades described in the 2 above.
# MSCH-induced EAE [1] = assay: MSCH-induced EAE in CSJL mice (Example 2.7); type: in vivo, CSJL/F1 mice
# MSCH-induced EAE [2] = assay: MSCH-induced EAE in CSJL/F1 mice (Example 2.8); type: in vivo; design: key to MMS value (Mean Maximal Score) / GMS value (Group Mean Score): EAE clinical score per grading table; 5 = sacrificed or died
# Description: Disease was induced in all mice by the injection of the encephalitogenic emulsion (MSCH/CFA). The test articles and the vehicle were administered orally twice a day.
# For groups 1 and 3 to 6, 360.0 mg MSCH was suspended in 3.0 ml PBS to yield 120 mg/ml MSCH suspension.
# 0.05 ml was injected into the left foot-pad of each mouse. The concentration of MSCH in emulsion in all groups was 60 mg/mL. The dose of the MSCH in all the groups was 3.0 mg/0.05 ml/mouse. The concentration of MT in emulsion in all groups was 0.25 mg/mL. The dose of the MT in all the groups was 0.0125 mg/0.05 ml/mouse.
# 36 μL Pertussis toxin (200 μg/ml) was added to 44.964 ml PBS to yield 160 ng/ml. The pertussis toxin was administered intravenous on the day of encephalitogen injection and 48 hours later (80.0 ng/0.5 ml/mouse).
# Solutions at concentration of 0.001, 0.01, 0.03 and 0.1 mg/mL laquinimod were prepared in water for dose levels of 0.01, 0.1, 0.3 and 1.0 mg/kg respectively. The test formulations were stored at 2 to 8° C. until use in amber colored bottles.
# The mice were administered with the respective dose levels of laquinimod at volume dose level of 200 μL/mouse. The test formulations were vortexed before dispensing in syringe.
# The different dose levels laquinimod were administered to the respective groups once a day.
# Scoring of EAE clinical signs was initiated from the 10th day post-EAE induction and was continued daily until Day 23. The clinical signs were recorded on observation cards according to a grading system described in the table 23 above. Animals with score 4 for more than three days were given score 5 and sacrificed for humane reasons. For calculation purposes, the score (5) of animals that are sacrificed or died were carried forward.
# The calculations are as shown in Example 2.4.
# [3] = laquinimod 2.5 mg/kg/day gavage
# [4] = LAQ 0.01 mg/kg/day oral, alone or + GA Blocking 0.5 mg/kg
# [5] = LAQ 0.1 mg/kg/day oral, alone or + GA Blocking 0.5 mg/kg
# [6] = LAQ 0.01 mg/kg daily, orally by gavage
# [7] = LAQ 0.1 mg/kg daily, orally by gavage
# [8] = LAQ 0.3 mg/kg daily, orally by gavage
# [9] = LAQ 1.0 mg/kg daily, orally by gavage
# [10] = laquinimod 0.1 mg/kg/day oral, alone or + GA 0.5 mg/kg
smiles,measurement,setting,value
CCN(C(=O)c1c(O)c2c(Cl)cccc2n(C)c1=O)c1ccccc1 [laquinimod],inhibition at 2.5 mg/kg,"MOG-induced EAE; Mus musculus, po, 0 h, laquinimod 2.5 mg/kg/day gavage, read-out: % Inhibition compared to control (GMS)",53.7%
same,inhibition at 5 mg/kg,"MOG-induced EAE; Mus musculus, po, 0 h, laquinimod 5 mg/kg/day gavage, read-out: % Inhibition compared to control (GMS)",≤ 68%
same,Group Mean Score,MOG-induced EAE; [3],1.50**
same,Incidence,MOG-induced EAE; [3],13/15
same,Mean Disease Duration,MOG-induced EAE; [3],10.2*** days
same,Mean Maximal Score,MOG-induced EAE; [3],3.17**
same,Mean Onset,MOG-induced EAE; [3],18.9*** days
same,Mortality,MOG-induced EAE; [3],1/15
same,% inhibition compared to Control (GMS),MOG-induced EAE; laquinimod 5 mg/kg/day gavage,68.2%
same,Group Mean Score,MOG-induced EAE; laquinimod 5 mg/kg/day gavage,1.03***
same,Incidence,MOG-induced EAE; laquinimod 5 mg/kg/day gavage,12/14
same,Mean Disease Duration,MOG-induced EAE; laquinimod 5 mg/kg/day gavage,8.6*** days
same,Mean Maximal Score,MOG-induced EAE; laquinimod 5 mg/kg/day gavage,2.89**
same,Mean Onset,MOG-induced EAE; laquinimod 5 mg/kg/day gavage,18.1*** days
same,Mortality,MOG-induced EAE; laquinimod 5 mg/kg/day gavage,0/14
same,% Inhibition 1 (incidence),MSCH-induced EAE [1]; [4],0.0%
same,GMS % Inhibition 3,MSCH-induced EAE [1]; [4],16.7%
same,GMS value,MSCH-induced EAE [1]; [4],3.5 ± 0.9
same,Incidence,MSCH-induced EAE [1]; [4],10/10
same,MMS % Inhibition 2,MSCH-induced EAE [1]; [4],4.0%
same,MMS value,MSCH-induced EAE [1]; [4],4.8 ± 0.4
same,Mean Duration,MSCH-induced EAE [1]; [4],11.5 ± 0.8 days
same,Mean Onset,MSCH-induced EAE [1]; [4],12.5 ± 0.8 days
same,% Inhibition 1 (incidence),MSCH-induced EAE [1]; [5],10.0%
same,GMS % Inhibition 3,MSCH-induced EAE [1]; [5],31.0%
same,GMS value,MSCH-induced EAE [1]; [5],2.9 ± 1.5
same,Incidence,MSCH-induced EAE [1]; [5],9/10
same,MMS % Inhibition 2,MSCH-induced EAE [1]; [5],18.0%
same,MMS value,MSCH-induced EAE [1]; [5],4.2 ± 1.7
same,Mean Duration,MSCH-induced EAE [1]; [5],9.8 ± 4.0 days
same,Mean Onset,MSCH-induced EAE [1]; [5],14.2 ± 4.0 days
same,% Inhibition 1 (incidence),MSCH-induced EAE [1]; LAQ 0.3 mg/kg/day oral,0.0%
same,GMS % Inhibition 3,MSCH-induced EAE [1]; LAQ 0.3 mg/kg/day oral,28.6%
same,GMS value,MSCH-induced EAE [1]; LAQ 0.3 mg/kg/day oral,3.0 ± 1.2
same,Incidence,MSCH-induced EAE [1]; LAQ 0.3 mg/kg/day oral,10/10
same,MMS % Inhibition 2,MSCH-induced EAE [1]; LAQ 0.3 mg/kg/day oral,16.0%
same,MMS value,MSCH-induced EAE [1]; LAQ 0.3 mg/kg/day oral,4.2 ± 1.0
same,Mean Duration,MSCH-induced EAE [1]; LAQ 0.3 mg/kg/day oral,10.8 ± 2.0 days
same,Mean Onset,MSCH-induced EAE [1]; LAQ 0.3 mg/kg/day oral,13.2 ± 2.0 days
same,Mortality,MSCH-induced EAE [1]; LAQ 0.3 mg/kg/day oral,6/10
same,% Inhibition 1 (incidence),MSCH-induced EAE [1]; LAQ 1.0 mg/kg/day oral,0.0%
same,GMS % Inhibition 3,MSCH-induced EAE [1]; LAQ 1.0 mg/kg/day oral,38.1%
same,GMS value,MSCH-induced EAE [1]; LAQ 1.0 mg/kg/day oral,2.6 ± 1.1
same,Incidence,MSCH-induced EAE [1]; LAQ 1.0 mg/kg/day oral,10/10
same,MMS % Inhibition 2,MSCH-induced EAE [1]; LAQ 1.0 mg/kg/day oral,28.0%
same,MMS value,MSCH-induced EAE [1]; LAQ 1.0 mg/kg/day oral,3.6 ± 0.0
same,Mean Duration,MSCH-induced EAE [1]; LAQ 1.0 mg/kg/day oral,10.7 ± 1.9 days
same,Mean Onset,MSCH-induced EAE [1]; LAQ 1.0 mg/kg/day oral,13.0 ± 2.0 days
same,Mortality,MSCH-induced EAE [1]; LAQ 1.0 mg/kg/day oral,3/10
same,Mortality,"MSCH-induced EAE [1]; mouse, in vivo",7/10 and 8/10
same,% Inhibition 1 (according to Incidence),MSCH-induced EAE [2]; [6],0.0%
same,% Inhibition 2 (according to MMS),MSCH-induced EAE [2]; [6],24.4%
same,% Inhibition 3 (according to GMS),MSCH-induced EAE [2]; [6],35.3%( )
same,GMS value (Group Mean Score),MSCH-induced EAE [2]; [6],2.2 ± 1.2
same,Incidence,MSCH-induced EAE [2]; [6],10/11
same,MMS value (Mean Maximal Score),MSCH-induced EAE [2]; [6],3.4 ± 1.4
same,Mean Duration,MSCH-induced EAE [2]; [6],9.5 days
same,Mortality,MSCH-induced EAE [2]; [6],2/11
same,Onset,MSCH-induced EAE [2]; [6],13.7 days
same,% Inhibition 1 (according to Incidence),MSCH-induced EAE [2]; [7],90.0%
same,% Inhibition 2 (according to MMS),MSCH-induced EAE [2]; [7],42.2%
same,% Inhibition 3 (according to GMS),MSCH-induced EAE [2]; [7],55.9%( )
same,GMS value (Group Mean Score),MSCH-induced EAE [2]; [7],1.5 ± 1.2
same,Incidence,MSCH-induced EAE [2]; [7],1/11
same,MMS value (Mean Maximal Score),MSCH-induced EAE [2]; [7],2.6 ± 1.8
same,Mean Duration,MSCH-induced EAE [2]; [7],6.9 days
same,Mortality,MSCH-induced EAE [2]; [7],8/11
same,Onset,MSCH-induced EAE [2]; [7],16.5 days
same,% Inhibition 1 (according to Incidence),MSCH-induced EAE [2]; [8],30.0%
same,% Inhibition 2 (according to MMS),MSCH-induced EAE [2]; [8],53.3%
same,% Inhibition 3 (according to GMS),MSCH-induced EAE [2]; [8],73.5%( )
same,GMS value (Group Mean Score),MSCH-induced EAE [2]; [8],0.9 ± 0.9
same,Incidence,MSCH-induced EAE [2]; [8],7/11
same,MMS value (Mean Maximal Score),MSCH-induced EAE [2]; [8],2.1 ± 1.8
same,Mean Duration,MSCH-induced EAE [2]; [8],4.2 days
same,Mortality,MSCH-induced EAE [2]; [8],1/11
same,Onset,MSCH-induced EAE [2]; [8],17.3 days
same,% Inhibition 1 (according to Incidence),MSCH-induced EAE [2]; [9],90.0%
same,% Inhibition 2 (according to MMS),MSCH-induced EAE [2]; [9],93.3%
same,% Inhibition 3 (according to GMS),MSCH-induced EAE [2]; [9],97.1%( )
same,GMS value (Group Mean Score),MSCH-induced EAE [2]; [9],0.1 ± 0.3
same,Incidence,MSCH-induced EAE [2]; [9],1/11
same,MMS value (Mean Maximal Score),MSCH-induced EAE [2]; [9],0.3 ± 0.9
same,Mean Duration,MSCH-induced EAE [2]; [9],0.5 days
same,Mortality,MSCH-induced EAE [2]; [9],0/11
same,Onset,MSCH-induced EAE [2]; [9],23.5 days
same,Incidence,MSCH-induced EAE [2]; laquinimod 0.01 mg/kg/day oral,91%
same,activity according to GMS,MSCH-induced EAE [2]; laquinimod 0.01 mg/kg/day oral,35.3%
same,activity according to incidence,MSCH-induced EAE [2]; laquinimod 0.01 mg/kg/day oral,9.1%
same,duration of disease,MSCH-induced EAE [2]; laquinimod 0.01 mg/kg/day oral,13.7 ± 3.8 days
same,onset of disease,MSCH-induced EAE [2]; laquinimod 0.01 mg/kg/day oral,9.5 ± 3.9 days
same,activity according to GMS,MSCH-induced EAE [2]; [10],55.9%
same,activity according to incidence,MSCH-induced EAE [2]; [10],27.3%
same,activity according to GMS,MSCH-induced EAE [2]; laquinimod 0.3 mg/kg/day oral,73.5%
same,activity according to incidence,MSCH-induced EAE [2]; laquinimod 0.3 mg/kg/day oral,36.4%
same,activity (conclusion),"MSCH-induced EAE [2]; laquinimod 1.0 mg/kg as printed, alone or + GA 0.5 mg/kg",55.9%
same,activity according to GMS,MSCH-induced EAE [2]; laquinimod 1.0 mg/kg/day oral,97.1%
same,activity according to incidence,MSCH-induced EAE [2]; laquinimod 1.0 mg/kg/day oral,90.9%
